{"source": "paper PMC9004346", "about": "“Development of small cyclic peptides targeting the CK2α/β interface” (Chemical Communications (Cambridge, England), 2022)", "key": {"[1]": {"assay": "Solubility observations during FP and ITC testing", "assay_type": "physicochemical", "conditions": "observed during FP or ITC testing"}, "[2]": {"assay": "MTT cell viability assay in HeLa cells", "assay_type": "cell-based", "conditions": "human", "procedure": "(§1) HeLa cells were maintained in 5% CO2 in DMEM supplemented with 10% FBS, 2 mM L-glutamine, 100 U/mL penicillin and […] streptomycin, in an atmosphere containing 5% CO2.\n(§2) Cells were regularly passed and used for experiments within one month after thawing (10-15 […]\n(§3) 1.6.2 Cell viability assay\n(§4) Cell viability was assayed by 3-(4,5-dimethylthiazol-2-yl)-2,5-diphenyltetrazolium bromide (MTT) colorimetric assay. HeLa cells were plated on 96-well plates (20,000 cells per well in 100 μL). After 24 h, cells were treated with different concentrations of test compounds or vehicle alone (DMSO). One hour before the end of the incubations, 10 μL of MTT solution (5 mg/mL in PBS) were added to each well. Formazan crystals (proportional to the number of viable cells) were then dissolved by the addition of 20 μL/well of a pH 4.7 solution containing 20% (w:v) SDS, 50% (v:v) N,N-dimethylformamide, 2% (v:v) acetic acid, and 25 mM HCl, and quantified by recording the absorbance at 570 nm using an Infinite M200 PRO plate reader (TECAN, Life Sciences). […]"}, "HeLa cells": {"test_system": "HeLa cells", "assay": "MTT cell viability assay in HeLa cells", "assay_type": "cell-based", "conditions": "HeLa cells, MTT, 48 h", "procedure": "as §1, §2, §3, §4"}, "CK2α": {"molecular_target": "T1, CK2α (Homo sapiens, UniProt P68400, K74A/K75A/K76A/R21S)", "T1 construct": "CK2α_KA (residues 2-329) contained four mutations; made in house", "T1 sequence (P68400 2-329 R21S/K74A/K75A/K76A)": "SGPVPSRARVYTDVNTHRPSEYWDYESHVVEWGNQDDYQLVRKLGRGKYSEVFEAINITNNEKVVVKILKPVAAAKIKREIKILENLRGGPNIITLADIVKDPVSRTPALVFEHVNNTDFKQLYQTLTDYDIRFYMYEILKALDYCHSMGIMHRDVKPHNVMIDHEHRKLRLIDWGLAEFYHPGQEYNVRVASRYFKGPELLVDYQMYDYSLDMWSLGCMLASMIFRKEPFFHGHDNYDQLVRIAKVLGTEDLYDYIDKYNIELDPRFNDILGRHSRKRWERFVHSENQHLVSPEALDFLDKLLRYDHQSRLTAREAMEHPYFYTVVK", "assay": "Isothermal titration calorimetry (ITC) binding to CK2α", "conditions": "25 °C, CK2α_KA", "description": "Ligand efficiency (LE) is a commonly used statistic to evaluate and compare the effectiveness of drug candidates.17 Mathematically, it is related to the IC50 of the molecule, as well as the number of heavy atoms (non-hydrogen) it contains, as detailed in Equation 1. 18\nEquation 1 Mathematical expression for the ligand efficiencies of compounds.18 pIC50 = -log10(IC50) LE = Number of non ‒ H atoms […]\ngreatest activity with the fewest heavy atoms.\n1.5 Biophysical experiments\n1.5.1 Protein expression and purification\nThree constructs of CK2α were used in this study. For FP assays, CK2α_WT was used (residues 2-329).\nFor ITC CK2α_KA construct was used whilst CK2α_FP10 was used for crystallisation purposes. CK2α_KA (residues 2-329) contained four mutations designed to aid crystallisation and solubility by reducing the overall charge of the protein; R21S, K74A, K75A and K76A. CK2α_FP 10 contained one mutation (R21S) and an N-terminal extension […] aimed at mimicking a substrate peptide for CK2α. These constructs were cloned, expressed, and purified as previously described.19 1.5.2 Fluorescence polarisation\nIC50’s were determined using a PHERAstar FS plate reader (BMG labtech). The fluorescein probe was measured using 485 nm excitation and 530 nm emission. The fluorescein probe was covalently linked to the N-terminus of the linear CK2β-based peptide RLYGFKIHPMAYQLQ. IC50’s were measured using 500, 167, 16.7, 8.33 and 0 μM of the test peptide at a constant concentration of DMSO. P7C8, P8C9, P+L and P+ were tested at concentrations of 50.0, 16.7, 1.67, 0.833 and 0 μM due to their higher potencies. The experiments were performed in a Corning 384-well plate with final concentrations of 571 nM CK2α_WT (residues 2-329), 7.4 μM fluorescent peptide (fluorescein probe was covalently linked to the N-terminus of the linear CK2β-based peptide RLYGFKIHPMAYQLQ), 200 mM NaCl, 40mM TRIS, 20 mM MgCl2 and pH 7.5. The plates were read after a 45 min incubation period.\n1.5.3 Isothermal titration calorimetry\nAll ITC experiments were performed at 25 °C using a MicroCal ITC-200 (GE Healthcare). […]"}, "Serum stability test": {"assay": "Serum stability test", "assay_type": "in vitro ADME", "conditions": "20% human serum in PBS, 37 °C, monitored over 24 h", "procedure": "1.6.3 Serum stability test\n500 μL of PBS buffer supplemented with 20% (v/v) of human serum was allocated into an Eppendorf tube and temperature kept at 37 °C for 15 minutes before commencing the experiment. 5 µL of the peptide from 10 mM stock solution in DMSO was added. Caffeine was added as an internal standard (10 μL of a 15 mg/mL solution in MQ water). At specific intervals, 50 µL of the reaction mixture was taken and quenched with 100 µL of a 1:1 mixture of 96% Ethanol:DMSO. The suspension was spun at 13400 g for 10 minutes. 100 μL of the supernatant was analysed using C-18 HPLC with an eluting gradient 5-95% MeCN (0.05% TFA) in water (0.05% TFA) over 15 minutes (90 μL injection volume).\nPercentage of intact starting peptide was monitored over 24 h (calculated as the ratio of the area of […]\nthe peak corresponding to the intact peptide to the area of the peak of caffeine). The experiment was […]\n1 M. M. Wiedmann, Y. S. Tan, Y. Wu, S. Aibara, W. Xu, H. F. Sore, C. S. Verma, L. Itzhaki, M.\nStewart, J. D. Brenton and D. R. Spring, Angew. Chemie Int. Ed., 2017, 56, 524–529.\n3 G. T. Potter, G. C. Jayson, G. J. Miller and J. M. Gardiner, J. Org. Chem., 2016, 81, 3443–3446.\n4 J. Iegre, P. Brear, D. J. Baker, Y. S. Tan, E. L. Atkinson, H. F. Sore, D. H. O’ Donovan, C. S. Verma,\n7 C. Puig Duran, F. Albericio Palomera, M. Gongora Benitez, M. Paradis Bas, L. Miret Casals, I. […]"}}, "note": "Where two headings read alike, the source gives them in different places. *1 amine or outer side, *2 acyl side, *3 side chain or, on linkers, in order; H or OH if unused. Where a SMILES comes first, the peptide text is derived from it. Bridges are numbered along the chain shown (N, C = ends). Side-chain parts run from the residue outwards. [ ]: non-standard residue; d: D form. The star is where a group is joined. Trp(2-yl) = O=C([C@H](Cc1c([*:3])[nH]c2ccccc12)N[*:1])[*:2]; Lauroyl = CCCCCCCCCCCC(=O)*; hCys = N[C@@H](CCS)C(=O)O; AEEA = NCCOCCOCC(=O)O; CH2 = C([*:1])[*:2]; Ahx = NCCCCCC(=O)O"}
{"smiles": "CCCCCCCCCCCC(=O)NCCOCCOCC(=O)NCCCC[C@@H]1NC(=O)[C@H](Cc2ccccc2)NC(=O)CNC(=O)[C@H](Cc2ccc(O)cc2)NC(=O)[C@H](CC(C)C)NC(=O)[C@H](CCCNC(=N)N)NC(=O)[C@@H](NC(C)=O)CCSc2[nH]c3ccccc3c2C[C@@H](C(N)=O)NC1=O", "note": "[P8C9[FA]] (Ac-[hCys]RLYGFK([AEEA-Lauroyl])[Trp(2-yl)]-NH2; thioether 1-8)", "values": [{"measurement": "Solubility (observation in words)", "setting": "[1]", "result": "Precipitation"}]}
{"smiles": "CC(C)C[C@@H]1NC(=O)[C@H](CCCNC(=N)N)NC(=O)[C@@H](NC(=O)CCCCCNC(=O)CCCCCNC(=O)[C@H](CCCNC(=N)N)NC(=O)[C@H](CCCNC(=N)N)NC(=O)[C@@H](N)CCCNC(=N)N)CCSc2[nH]c3ccccc3c2C[C@@H](C(N)=O)NC(=O)[C@H](CCCCN)NC(=O)[C@H](Cc2ccccc2)NC(=O)CNC(=O)[C@H](Cc2ccc(O)cc2)NC1=O", "note": "[Peptide R3-P8C9] (H-RRR[Ahx][Ahx][hCys]RLYGFK[Trp(2-yl)]-NH2; thioether 6-13)", "values": [{"measurement": "viability at 48 h, 50 µM", "setting": "[2]", "result": "66 ± 5", "unit": "%"}, {"measurement": "viability at 48 h, 100 µM", "setting": "[2]", "result": "54 ± 4", "unit": "%"}, {"measurement": "Effect on cell viability (in words)", "setting": "HeLa cells", "result": "large reduction in cell viability"}]}
{"smiles": "CC(=O)NCCOCCOCC(=O)NCCCC[C@@H]1NC(=O)[C@H](Cc2ccccc2)NC(=O)CNC(=O)[C@H](Cc2ccc(O)cc2)NC(=O)[C@H](CC(C)C)NC(=O)[C@H](CCCNC(=N)N)NC(=O)[C@@H](NC(C)=O)CCSc2[nH]c3ccccc3c2C[C@@H](C(N)=O)NC1=O", "note": "[P8C9[PEG]] (Ac-[hCys]RLYGFK([AEEA-Ac])[Trp(2-yl)]-NH2; thioether 1-8 (inferred))", "values": [{"measurement": "Kd", "setting": "CK2α", "result": 1600, "unit": "nM"}]}
{"smiles": "CCCCCCCCCCCC(=O)NCCOCCOCC(=O)N[C@H]1CCSc2[nH]c3ccccc3c2C[C@@H](C(N)=O)NC(=O)[C@H](CCCCN)NC(=O)[C@H](Cc2ccccc2)NC(=O)CNC(=O)[C@H](Cc2ccc(O)cc2)NC(=O)[C@H](CC(C)C)NC(=O)[C@H](CCCNC(=N)N)NC1=O", "note": "[FA-P8C9] ({Lauroyl-AEEA}-[hCys]RLYGFK[Trp(2-yl)]-NH2; thioether 1-8)", "values": [{"measurement": "Kd", "setting": "CK2α", "result": 1300, "unit": "nM"}]}
{"smiles": "CC(C)C[C@@H]1NC(=O)[C@H](CCCNC(=N)N)NC(=O)[C@@H](NC(=O)CCCCCNC(=O)CCCCCNC(=O)[C@H](CCC(N)=O)NC(=O)[C@@H]2CCCN2C(=O)[C@@H]2CCCN2C(=O)[C@H](CCCNC(=N)N)NC(=O)[C@H](CCCNC(=N)N)NC(=O)[C@H](CCCNC(=N)N)NC(=O)[C@H](CCC(N)=O)NC(=O)[C@H](CCCNC(=N)N)NC(=O)[C@H](CCCNC(=N)N)NC(=O)[C@H](CCCCN)NC(=O)[C@H](CCCCN)NC(=O)[C@H](CCCNC(=N)N)NC(=O)CN)CCSc2[nH]c3ccccc3c2C[C@@H](C(N)=O)NC(=O)[C@H](CCCCN)NC(=O)[C@H](Cc2ccccc2)NC(=O)CNC(=O)[C@H](Cc2ccc(O)cc2)NC1=O", "note": "[TAT-P8C9] (H-GRKKRRQRRRPPQ[Ahx][Ahx][hCys]RLYGFK[Trp(2-yl)]-NH2; thioether 16-23)", "values": [{"measurement": "viability at 48 h, 50 µM", "setting": "[2]; HeLa cells, 48 h, 50 μM compound, ±standard deviation, read-out: Cell viability (%) 50 μM compound", "result": "66 ± 4", "unit": "%"}, {"measurement": "viability at 48 h, 100 µM", "setting": "[2]; HeLa cells, 48 h, 100 μM compound, ±standard deviation, read-out: Cell viability (%) 100 μM compound", "result": "26 ± 7", "unit": "%"}, {"measurement": "Effect on cell viability (in words)", "setting": "HeLa cells", "result": "large reduction in cell viability"}]}
{"smiles": "CC(=O)N[C@H]1CSCSC[C@@H](C(N)=O)NC(=O)[C@H](CCCCN)NC(=O)[C@H](Cc2ccccc2)NC(=O)CNC(=O)[C@H](Cc2ccc(O)cc2)NC(=O)[C@H](CC(C)C)NC(=O)[C@H](CCCNC(=N)N)NC1=O", "note": "[Peptide P5C6] (Ac-CRLYGFKC-NH2; linker 1-8 via CH2)", "values": [{"measurement": "Solubility (observation in words)", "setting": "[1]", "result": "poor solubility"}]}
{"smiles": "CC(=O)N[C@@H](CCS)C(=O)N[C@@H](CCCNC(=N)N)C(=O)N[C@@H](CC(C)C)C(=O)N[C@@H](Cc1ccc(O)cc1)C(=O)NCC(=O)N[C@@H](Cc1ccccc1)C(=O)N[C@@H](CCCCN)C(=O)N[C@@H](Cc1c[nH]c2ccccc12)C(N)=O", "note": "[Peptide P8] (Ac-[hCys]RLYGFKW-NH2)", "values": [{"measurement": "Serum stability (in words)", "setting": "Serum stability test", "result": "fully had degraded after 1 h"}]}
